Patent US8242251B2, “Unsymmetrical cyanine dimer compounds and their application” (Life Technologies Corporation, priority 2003, dated 2012)
“Also recorded” adds a separate entry of the source.

Experiments:
RNA versus DNA = experiment: Screening of fluorescence properties and relative fluorescence enhancement with RNA versus DNA (Table 3); type: binding; conditions: fluorescence enhancement when associated with RNA to that when associated with DNA
[1] = tested on: HeLa human cervical cancer cells; experiment: Nucleic acid binding in live eukaryotic cells, HeLa (Example 41); type: cell-based
Protocol: (§1) Bovine pulmonary arterial endothelial (BPEA) cells and HeLa human cervical cancer cells were grown in media for one day after plating on coverslips. Cells were labeled with 1 μM or 10 μM of Compound 21 for HeLa cells, or 10 μM in BPAE cells, in media at 37° C. for 20 minutes, then rinsed twice and mounted in warm medium. Coverslips were examined on a Nikon Eclipse 800 upright fluorescent microscope and imaged with a far red filter set, a Princeton Instruments MicroMax cooled CCD camera, and Universal Imaging MetaMorph imaging software.

[2] = tested on: Bovine pulmonary arterial endothelial (BPEA) cells; experiment: Nucleic acid binding in live eukaryotic cells, BPAE (Example 41); type: cell-based; conditions: 10 μM
Protocol: as §1

[3] = tested on: Gram-positive (Staphylococcus aureus) and Gram-negative (Eshcerichia coli) bacteria; experiment: Rifampicin-depletion of bacterial RNA, flow cytometry and microplate reader (Example 37); type: cell-based
Protocol: Gram-positive (Staphylococcus aureus) and Gram-negative (Eshcerichia coli) bacteria in growth medium were treated with 25 μg/mL rifampicin for one hour. Treated and untreated bacteria were counted, diluted to 1×10^7 bacteria/mL in 0.85% NaCl, and 1 mL aliquots incubated with 0.25 μM, 0.5 μM, or 1 μM Compound 6 or Compound 9 for 10-15 minutes protected from light. The samples were analyzed by flow cytometry and then 100 μL volumes were transferred to a microplate in triplicate and analyzed by a microplate reader. The fluorescence intensity was corrected against the dye in solution, which was weakly fluorescent.

[4] = tested on: Bovine pulmonary arterial endothelial cells; experiment: Nucleic acid binding after RNase and DNase on methanol-fixed eukaryotic cells (Example 38); type: cell-based
Protocol: (§2) Bovine pulmonary arterial endothelial cells were grown in media for one day after plating and then fixed ten minutes in 100% methanol at −20° C. Cells were washed 3×5 minutes in PBT (0.05M phosphate-buffered saline (PBS) containing 0.1% Triton X-100) and then treated with RNase (from Roche, at 1:500 dilution) or DNase (from Promega, at 1:100 dilution) for 2 hours at 37° C. Cells were washed again for 3×5 minutes in PBT and then labeled with Compound 6 at 687 nM concentration for 20 minutes. Cells were washed 3×10 minutes in PBS and mounted on microscope slides in ProLong antifade mounting medium. After the mountant had hardened, slides were examined on a Nikon Eclipse 800 upright fluorescent microscope and imaged with a FITC filter set, a Princeton Instrument MicroMax cooled CCD camera, and Universal Imaging MetaMorph imaging software. […] See, FIG. 4.

[5] = tested on: Bovine pulmonary arterial endothelial cells; experiment: Nucleic acid binding on RNase and DNase treated formaldehyde-fixed eukaryotic cells (Example 39); type: cell-based; conditions: Compound 6 687 nM, Compound 19 1 μM
Protocol: as §2, with “fixed fifteen” for “fixed ten”, “in 4% paraformaldehyde.” for “in 100% methanol at −20° C.”, “1:100 dilution), or both” for “1:100 dilution)”, “concentration or Compound 19 at 1 μM concentration in PBS” for “concentration”, “mounting medium (Molecular Probes, Inc.).” for “mounting medium.”, “FIG. 5.” for “FIG. 4.”

[6] = tested on: Bovine pulmonary arterial endothelial cells; experiment: Nucleic acid binding in live eukaryotic cells followed by fixing of cells (Example 40); type: cell-based
Protocol: Bovine pulmonary arterial endothelial cells were grown in media for one day after plating and then labeled before fixing with 687 nM Compound 6 for 20 minutes. Some cells were rinsed in media and separated for live imaging. The other cells were rinsed twice with media and then fixed in 4% paraformaldehyde for 15 minutes at room temperature, 0.5% glutaraldehyde for 5 minutes at room temperature, or 100% methanol for 10 minutes at −20° C. Cells were washed 3×10 minutes in phosphate-buffered saline and mounted on microscope slides in ProLong antifade mounting medium (Molecular Probes, Inc.). After the mountant had hardened, slides were examined on a Nikon Eclipse 800 upright fluorescent microscope and imaged with a FITC filter set, a Princeton Instrument MicroMax cooled CCD camera, and Universal Imaging MetaMorph imaging software. […] Fixation with either paraformaldehyde or glutaraldehyde removed all mitochondrial labeling. Nucleolar label remained, but nuclear label increased. […] Methanol-fixation had good nucleolar labeling, with only a slight increase in nuclear labeling. All mitochondrial labeling was removed. Cytoplasmic label increased slightly, but not nearly to the extent seen with other fixation. Results generally indicate that methanol-fixation is the recommended fixation technique.

[7] = tested on: Bovine pulmonary arterial endothelial cells; experiment: Nucleic acid binding in methanol-fixed eukaryotic cells (Example 42); type: cell-based
Protocol: Bovine pulmonary arterial endothelial cells were grown in media for one day after plating on coverslips and then fixed 10 minutes in −20° C. 100% methanol. Cells were washed 3×5 minutes 50 mM phosphate buffered saline (PBS), pH 7.3. Cells were labeled with Compound 11 at 5 μM, 1 μM, or 500 nM concentration in PBS for 20 minutes, washed 3×10 minutes in PBS, and mounted in ProLong antifade mountant (Molecular Probes, Inc.). Cells were labeled with Compound 6 at 500 nM in PBS for 20 minutes. After the mountant had hardened, slides were examined on a Nikon Eclipse 800 upright fluorescent microscope and imaged with a blue-green filter set, a Princeton Instruments MicroMax cooled CCD camera, and Universal Imaging MetaMorph imaging software. Comparison of emission wavelength was made using a Zeiss 510 confocal microscope utilizing a META spectral unmixing system. […] Optimal labeling for both compounds appeared to be about […]. […] See, FIG. 6.

[8] = methanol fixed cells, cytoplasm, nucleus and nucleolus (FIG. 4)
[9] = methanol-fixed, compound 687 nM
[10] = methanol-fixed, compound 687 nM, by eye

Structure (SMILES): C[n+]1c(/C=C2\C=C(N3CCN(C4=C/C(=C\c5oc6ccccc6[n+]5C)c5ccccc5N4c4ccccc4)CC3)N(c3ccccc3)c3ccccc32)oc2ccccc21.[Cl-].[Cl-] [Compound 20]
- Fluorescence Enhancement Ratio (RNA/DNA) (RNA versus DNA): 8.5
- selective detection of RNA in live cells [1]: did not demonstrate selective detection of RNA in live cells
- labeling pattern in HeLa cells ([1]; 1 μM or 10 μM, far red filter set): mitochondrial labeling, with stronger punctate spots within the mitochondria, typical of mitochondrial DNA staining; also recorded: very dim nucleolar labeling
- cell permeability in live cells ([1]; 20 minutes 37° C.): cell permeable
- labeling pattern in BPAE cells [2]: no specific labeling evident, and much higher off-cell background

Structure (SMILES): C[n+]1c(/C=C2\C=C(N3CCN(C4=C/C(=C\c5sc6ccccc6[n+]5C)c5ccccc5N4c4ccccc4)CC3)N(c3ccccc3)c3ccccc32)sc2ccccc21.[Cl-].[Cl-] [Compound 6]
- Fluorescence Enhancement Ratio (RNA/DNA) (RNA versus DNA): 7.0
- fluorescent signal of rifampicin treated versus untreated bacteria ([3]; 25 μg/mL rifampicin one hour, compound 0.25, 0.5 or 1 μM, 10-15 minutes): decrease in fluorescent signal after removal of mRNA
- signal intensity on RNA versus DNA in S. aureus cells with and without rifampicin ([3]; S. aureus, compound 0.25, 0.5 and 1 μM): stronger signal intensity when bound to RNA
- signal intensity of DNase treated cells [4, 8]: no decrease in signal intensity
- signal intensity of RNase treated cells [4, 8]: significant reduction in signal intensity
- nuclear labeling after DNase [4, 9]: not DNase
- nuclear labeling after RNase [4, 9]: significantly reduced by RNase
- nucleolar intensity after DNase ([4]; methanol-fixed, compound 687 nM, DNase 2 hours 37° C.): did not significantly affect
- labeling of nucleoli after RNase ([4]; methanol-fixed, compound 687 nM, RNase 2 hours 37° C.): eliminated
- cytoplasmic label after DNase [4, 10]: not DNase
- cytoplasmic label after RNase [4, 10]: reduced by RNase
- cytoplasmic label after DNase [5]: significantly reduced by both RNase and DNase
- cytoplasmic label after RNase [5]: significantly reduced by both RNase and DNase
- labeling of nucleoli after RNase [5]: eliminated
- nuclear labeling after DNase [5]: significantly reduced by both RNase and DNase
- nuclear labeling after RNase [5]: significantly reduced by both RNase and DNase
- nucleolar intensity after DNase [5]: significantly reduced
- labeling pattern in live cells ([6]; 687 nM, 20 minutes, live imaging): strong nucleolar label, strong punctate labeling in mitochondria consistent with mtDNA, and dimmer ubiquitous mitochondrial labeling
- labeling pattern after fixation with paraformaldehyde or glutaraldehyde ([6]; labeled live at 687 nM, then 4% paraformaldehyde or 0.5% glutaraldehyde): removed all mitochondrial labeling. Nucleolar label remained, but nuclear label increased. General cytoplasmic labeling also increased significantly
- labeling pattern after methanol-fixation ([6]; labeled live at 687 nM, then 100% methanol 10 minutes −20° C.): good nucleolar labeling, with only a slight increase in nuclear labeling. All mitochondrial labeling was removed. Cytoplasmic label increased slightly
- concentration of peak emission in detection of intracellular nucleic acid ([7]; FIG. 6): 500 nM
- optimal labeling concentration ([7]; methanol-fixed cells): about 500 μM
- staining pattern ([7]; methanol-fixed, Compound 11 5 μM, 1 μM or 500 nM, Compound 6 500 nM, 20 minutes): strong nucleolar and cytoplasmic labeling, with dimmer nuclear labeling, indicating selective RNA staining
